Measured values from PMC7178819, “6,7-Dimethoxy-2-phenethyl-1,2,3,4-tetrahydroisoquinoline amides and corresponding ester isosteres as multidrug resistance reversers” (Journal of Enzyme Inhibition and Medicinal Chemistry, 2020).

Columns and labels:
[1] = Apparent permeability (Papp) determination (BA/AB) in Caco-2 cell monolayer; format: in vitro ADME; details: human, Caco-2 monolayer
Method: Caco-2 cells were seeded onto a Millicell® assay system (Millipore), where a cell monolayer is set in between a filter cell and a receiver plate, at a density of 10 000 cells/well[46]. The culture medium was replaced every 48 h and the cells kept for 21 days in culture. The Trans Epithelial Electrical Resistance (TEER) of the monolayers was measured daily, before and after the experiment, using an epithelial volt-ohmmeter (Millicell®-ERS). Generally, TEER values greater than 1000 Ω for a 21 days culture, are considered optimal.
After 21 days of Caco-2 cell growth, the medium was removed from filter wells and from the receiver plate, which were filled with fresh HBSS buffer (Invitrogen). This procedure was repeated twice, and the plates were incubated at 37 °C for 30 min. After incubation time, the HBSS buffer was removed and drug solutions and reference compounds were added to the filter well at the concentration of 100 µM, while fresh HBSS was added to the receiver plate. The plates were incubated at 37 °C for 120 min. Afterwards, samples were removed from the apical (filter well) and basolateral (receiver plate) side of the monolayer to measure the permeability.
(§1) The interaction potency between the designed compounds and P-gp was evaluated by measuring the transport inhibition of the pro-fluorescent probe Calcein-AM, that is a P-gp substrate, in a cell line overexpressing P-gp (MDCK-MDR1)[47]. The P-gp interacting profile was further investigated with two other assays: the Apparent Permeability (Papp) determination (BA/AB) in Caco-2 cell monolayer[48]^,[49], and the ATP cell depletion in the MDCK-MDR1 cell line[50]. Taking into account the results of the combined tests, an interacting compound can be classified as substrate or inhibitor. Papp determination measures the ratio between two fluxes: from the basolateral to apical compartments (BA, representative of passive diffusion) and from the apical to basolateral compartments (AB, representative of active transport). […] In the same manner, if (BA/AB) >2, the compound should probably be classified as a substrate. […] The selectivity of ligands 1–26 was evaluated by detecting their activity towards the other ABC transporters MRP1 and BCRP, by measuring the inhibition of the efflux of Calcein-AM (i.e., also a MRP1 substrate) in cells overexpressing MRP1 (MDCK-MRP1 cells), and the inhibition of the efflux of the fluorescent probe Hoechst 33342 (i.e. a BCRP substrate) in cells overexpressing BCRP (MDCK-BCRP cells), respectively.

[2] = Stability test in human plasma (LC-MS/MS); format: in vitro ADME; details: human, human plasma, 1 µM, 37 °C
Method: (§2) Each sample was prepared adding 10 µL of working solution 1 to 100 µL of tested matrix (PBS or human plasma) in micro centrifuge tubes. The obtained solutions correspond to 1 µM of analyte.
After the incubation, the samples were added with 300 µL of ISTD solution and centrifuged (room temperature for 5 min at 10,000 rpm). The supernatants were transferred in auto sampler vials and dried under a gentle stream of nitrogen.
(§3) The dried samples were dissolved in 1.0 ml of 10 mM of formic acid in mQ water: acetonitrile 80:20 solution. The obtained sample solutions were analysed by LC-MS/MS methods described in Supplementary material.
(§4) For this purpose, a series of experiments were carried out, adding a known amount of analyte in both phosphate buffer solution (PBS) and in human plasma. The samples were analysed by LC-MS/MS method operating in Multiple Reaction Monitoring (MRM) mode[55].
The analyte concentration (1 µM) used during the stability tests is generally smaller than the corresponding Michaelis–Menten constant (KM); therefore, the enzymatic degradation rate is described by a first-order kinetic. Then, by plotting the natural logarithm of the quantitative data versus the incubation time, a linear function can be used and its slope represents the degradation rate (k).

P-gp [3] = biological target: T1, P-gp (Homo sapiens, UniProt P08183); experiment: ATP cell depletion (ATPlite assay) in MDCK-MDR1 cells; format: cell-based; details: Yes/No
T1 construct: expressed in transfected cells; host or cells: MDCK-MDR1 (Madin-Darby Canine Kidney cells, gift of Prof. P. Borst, NKI-AVL)
Method: The MDCK-MDR1 cells were seeded into 96-well microplate in 100 µL of complete medium at a density 20,000 cells per well. The plate was incubated overnight (O/N) in a humidified atmosphere 5% CO2 at 37 °C. The medium was removed and 100 µL of complete medium either alone or containing different concentrations (ranging from 1 to 100 µM) of test compounds was added. The plate was incubated for 2 h in a humidified 5% CO2 atmosphere at 37 °C. 50 µL of mammalian cell lysis solution was added to all wells and the plate shacked for five minutes in an orbital shaker. 50 µL of substrate solution was added to all wells and the plate shacked for five minutes in an orbital shaker. The plate was dark adapted for ten minutes and the luminescence was measured.
as §1

P-gp [4] = biological target: T1, P-gp; experiment: Inhibition of Calcein-AM transport in MDCK-MDR1 cells; format: cell-based; details: Calcein-AM, MDCK-MDR1 cells; mean ± SEM of two experiments
Method: These experiments were carried out as previously described by Teodori et al. with minor modifications. Each cell line (30 000 cells per well) was seeded into black CulturePlate 96/wells plate with 100 µL medium and allowed to become confluent overnight. 100 µL of test compounds were solubilised in culture medium and added to monolayers, with final concentrations ranging from 1 nM to 100 µM. 96/Wells plate was incubated for 30 min in a humidified atmosphere 5% CO2 at 37 °C. Calcein-AM was added in 100 µL of Phosphate Buffered Saline (PBS) to yield a final concentration of 2.5 µM and plate was incubated for 30 min in a humidified atmosphere 5% CO2 at 37 °C. Each well was washed 3 times with ice cold PBS. Saline buffer was added to each well and the plate was read with Victor3 (PerkinElmer) at excitation and emission wavelengths of 485 and 535 nm, respectively. In these experimental conditions, Calcein cell accumulation in the absence and in the presence of tested compounds was evaluated and fluorescence basal level was estimated with untreated cells. In treated wells the increase of fluorescence with respect to basal level was measured. EC50 values were determined by fitting the fluorescence increase percentage versus log[dose].
The interaction potency between the designed compounds and P-gp was evaluated by measuring the transport inhibition of the pro-fluorescent probe Calcein-AM, that is a P-gp substrate, in a cell line overexpressing P-gp (MDCK-MDR1)[47]. The P-gp interacting profile was further investigated with two other assays: the Apparent Permeability (Papp) determination (BA/AB) in Caco-2 cell monolayer[48]^,[49], and the ATP cell depletion in the MDCK-MDR1 cell line[50]. […] Papp determination measures the ratio between two fluxes: from the basolateral to apical compartments (BA, representative of passive diffusion) and from the apical to basolateral compartments (AB, representative of active transport). […] In the same manner, if (BA/AB) >2, the compound should probably be classified as a substrate.

[5] = Stability test in phosphate buffer solution (PBS); format: physicochemical; details: 1 µM, 37 °C, up to 120 min
Method: as §2
Each set of samples was incubated in triplicate at four different times, 0, 30, 60 and 120 min at 37 °C. Therefore, the degradation profile of each analyte was represented by a batch of 12 samples (4 incubation times × 3 replicates). After the incubation, the samples were added with 300 µL of ISTD solution and centrifuged (room temperature for 5 min at 10,000 rpm). The supernatants were transferred in auto sampler vials and dried under a gentle stream of nitrogen.
as §3
as §4, with “Due to the presence of ester or amide groups in the structure of compounds 1–26, a study aimed to evaluate their susceptibility to spontaneous or enzymatic hydrolysis, was planned. For” for “For”, “mode[55]. […]” for “mode[55].”

T1 sequence (P08183 whole entry): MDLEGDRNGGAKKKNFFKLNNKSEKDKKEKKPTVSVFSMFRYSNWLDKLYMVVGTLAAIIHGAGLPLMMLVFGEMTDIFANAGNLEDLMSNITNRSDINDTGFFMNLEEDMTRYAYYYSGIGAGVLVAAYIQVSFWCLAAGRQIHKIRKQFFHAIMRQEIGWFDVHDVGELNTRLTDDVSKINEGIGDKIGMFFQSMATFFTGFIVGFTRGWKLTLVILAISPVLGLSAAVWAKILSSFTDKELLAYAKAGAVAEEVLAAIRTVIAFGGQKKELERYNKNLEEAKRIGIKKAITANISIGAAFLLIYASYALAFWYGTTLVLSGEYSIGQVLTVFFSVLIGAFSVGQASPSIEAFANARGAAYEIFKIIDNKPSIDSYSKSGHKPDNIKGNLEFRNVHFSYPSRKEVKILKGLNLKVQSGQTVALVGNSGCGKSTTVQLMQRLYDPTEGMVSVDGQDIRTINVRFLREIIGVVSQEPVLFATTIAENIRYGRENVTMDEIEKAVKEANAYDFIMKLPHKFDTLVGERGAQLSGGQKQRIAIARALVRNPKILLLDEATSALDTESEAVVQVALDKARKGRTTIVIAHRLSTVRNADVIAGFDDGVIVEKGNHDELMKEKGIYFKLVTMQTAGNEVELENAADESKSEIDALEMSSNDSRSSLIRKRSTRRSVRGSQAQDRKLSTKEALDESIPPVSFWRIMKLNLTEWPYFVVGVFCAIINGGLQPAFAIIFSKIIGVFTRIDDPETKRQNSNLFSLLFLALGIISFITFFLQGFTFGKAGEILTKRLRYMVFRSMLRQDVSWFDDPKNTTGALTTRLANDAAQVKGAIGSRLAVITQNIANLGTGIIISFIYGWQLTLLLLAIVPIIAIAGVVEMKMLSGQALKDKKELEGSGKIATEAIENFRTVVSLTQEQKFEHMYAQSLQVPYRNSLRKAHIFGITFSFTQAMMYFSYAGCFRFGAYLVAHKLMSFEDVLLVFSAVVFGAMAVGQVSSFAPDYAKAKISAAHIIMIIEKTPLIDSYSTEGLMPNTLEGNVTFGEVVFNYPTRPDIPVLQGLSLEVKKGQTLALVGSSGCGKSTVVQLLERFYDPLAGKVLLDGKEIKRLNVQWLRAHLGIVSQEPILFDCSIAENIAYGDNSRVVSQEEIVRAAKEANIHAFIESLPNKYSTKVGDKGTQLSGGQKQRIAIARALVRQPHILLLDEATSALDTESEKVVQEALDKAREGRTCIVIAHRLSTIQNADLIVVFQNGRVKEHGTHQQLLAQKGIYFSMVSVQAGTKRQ

efflux ratio at 120 min, 100 µM [1]: 4.7
half-life at 1 µM [2]: ~6 min
ATP cell depletion (P-gp [3]): No
EC50 (P-gp [4]): 220 ± 40 nM
stability in PBS [5]: unmodified
Structure (SMILES): COc1cncc(C(=O)Oc2ccc(CCN3CCc4cc(OC)c(OC)cc4C3)cc2)n1 [Compound 25, 4–(2-(6,7-Dimethoxy-3,4-dihydroisoquinolin-2(1H)-yl)ethyl)phenyl 6-methoxypyrazine-2-carboxylate]
